# Test results: paper PMC5970182, “Enabling STD-NMR fragment screening using stabilized native GPCR: A case study of adenosine receptor” (Scientific Reports, 2018)
# Columns and labels:
# [1] = system: A2AR StaR; design: method as in PMID 18664584, PMID 20624408; conditions: cited from earlier work
# [2] = system: Non-transfected HEK293 cells; assay: cAMP assay in non-transfected HEK293 cells (negative control); format: cell-based, human; conditions: high concentrations of CGS-21680; probably endogenous A2AR
# [3] = target: T1, A2AR (Homo sapiens, UniProt P29274); assay: STD-NMR binding and competition on purified native A2AR
# T1 construct: Full length and wild type A2AR was expressed in yeast (Pichia pastoris) and Sf9; Strep-tag II (N); 8xHis (N); made in house; host or cells: Sf9 insect cells (baculovirus)
# [4] = target: the molecule itself; assay: SEC-MALS; peak 1 of the gel filtration of affinity-purified A2AR; Phenomenex Yarra SEC 3000-3 column, 20 °C, 0.3 ml/min; DDM/CHS micelles; dn/dc protein 0.185 ml/g, detergent 0.1618 ml/g
molecule,measurement,setting,value
CCNC(=O)[C@H]1O[C@@H](n2cnc3c(N)ncnc32)[C@H](O)[C@@H]1O [NECA],Binding of agonists to StaR preparation in comparison to the wild type protein,[1],not able to bind correctly
CCNC(=O)[C@H]1O[C@@H](n2cnc3c(N)nc(NCCc4ccc(CCC(=O)O)cc4)nc32)[C@H](O)[C@@H]1O [CGS-21680],cAMP production,[2],small increase in cAMP production
same,Binding of agonists to StaR preparation in comparison to the wild type protein,[1],not able to bind correctly
"Cn1c(=O)c2c(ncn2C)n(C)c1=O [caffeine, reference compound]",STD binding signal,[3],bound to A2AR
same,STD binding signal in competition with ZM241385,[3],binding signal of caffeine disappears
"Wild type, full length human adenosine A2A receptor (receptor, UniProt P29274 1-412, looked up, N-glycans attached (sites not given), adenosine A2A receptor, human, full length, wild type; Peak 2 of the gel filtration also holds a faster band consistent with a degradation product; also called native A2AR) MPIMGSSVYITVELAIAVLAILGNVLVCWAVWLNSNLQNVTNYFVVSLAAADIAVGVLAIPFAITISTGFCAACHGCLFIACFVLVLTQSSIFSLLAIAIDRYIAIRIPLRYNGLVTGTRAKGIIAICWVLSFAIGLTPMLGWNNCGQPKEGKNHSQGCGEGQVACLFEDVVPMNYMVYFNFFACVLVPLLLMLGVYLRIFLAARRQLKQMESQPLPGERARSTLQKEVHAAKSLAIIVGLFALCWLPLHIINCFTFFCPDCSHAPLWLMYLAIVLSHTNSVVNPFIYAYRIREFRQTFRKIIRSHVLRQQEPFKAAGTSARVLAAHGSDGEQVSLRLNGHPPGVWANGSAPHPERRPNGYALGLVSGGSAQESQGNTGLPDVELLSHELKGVCPEPPGLDDPLAQDGAGVS",stoichiometry N,[4],~5
